# Data: ChEMBL document CHEMBL2146466, “Evaluation of dimerization-inhibitory activities of cyclic peptides containing a β-hairpin loop sequence of the EGF receptor” (2012)
# Where a SMILES comes first, the peptide text is derived from it.
# Target: Epidermal growth factor receptor (Homo sapiens) (UniProt P00533)
# Assay: Human recombinant EGF receptor dimer amount expressed in A431 cells at 10 uM after 10 mins by immunoblotting analysis relative to control
# Conditions: A-431
# Sequence of Epidermal growth factor receptor (Homo sapiens) (P00533 whole entry): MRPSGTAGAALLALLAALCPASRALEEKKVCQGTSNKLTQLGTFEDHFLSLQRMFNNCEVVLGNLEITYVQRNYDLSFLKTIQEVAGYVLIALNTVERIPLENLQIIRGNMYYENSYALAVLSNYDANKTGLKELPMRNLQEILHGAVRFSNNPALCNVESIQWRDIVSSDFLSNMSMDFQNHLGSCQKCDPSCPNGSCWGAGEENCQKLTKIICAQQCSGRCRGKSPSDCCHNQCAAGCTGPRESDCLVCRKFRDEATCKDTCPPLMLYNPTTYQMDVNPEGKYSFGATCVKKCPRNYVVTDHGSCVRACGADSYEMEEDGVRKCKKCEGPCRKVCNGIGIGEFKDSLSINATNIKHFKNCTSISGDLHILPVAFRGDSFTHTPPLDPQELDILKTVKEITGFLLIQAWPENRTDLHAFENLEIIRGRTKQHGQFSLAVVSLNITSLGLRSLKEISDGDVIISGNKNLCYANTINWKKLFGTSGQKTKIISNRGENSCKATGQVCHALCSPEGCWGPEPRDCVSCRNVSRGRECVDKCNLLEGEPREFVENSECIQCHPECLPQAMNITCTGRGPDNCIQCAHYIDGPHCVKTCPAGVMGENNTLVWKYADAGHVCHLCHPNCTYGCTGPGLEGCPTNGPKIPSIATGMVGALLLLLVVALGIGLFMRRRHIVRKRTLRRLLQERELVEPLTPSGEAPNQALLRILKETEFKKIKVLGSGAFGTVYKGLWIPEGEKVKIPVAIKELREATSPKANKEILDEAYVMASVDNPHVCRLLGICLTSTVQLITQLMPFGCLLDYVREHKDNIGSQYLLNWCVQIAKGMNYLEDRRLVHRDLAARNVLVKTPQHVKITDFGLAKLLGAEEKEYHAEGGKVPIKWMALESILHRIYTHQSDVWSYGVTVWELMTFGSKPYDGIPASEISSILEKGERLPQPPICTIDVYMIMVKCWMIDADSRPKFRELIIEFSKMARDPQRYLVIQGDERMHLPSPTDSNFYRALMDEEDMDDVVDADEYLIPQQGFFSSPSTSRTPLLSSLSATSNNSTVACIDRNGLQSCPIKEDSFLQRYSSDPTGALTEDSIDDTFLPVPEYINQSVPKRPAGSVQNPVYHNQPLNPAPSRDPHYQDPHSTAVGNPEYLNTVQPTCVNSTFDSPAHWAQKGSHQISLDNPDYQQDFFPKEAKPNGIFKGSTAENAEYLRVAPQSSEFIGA
row,Structure (SMILES),residual activity
1,"CSCC[C@@H]1NC(=O)[C@H](CCC(N)=O)NC(=O)[C@H](Cc2ccc(O)cc2)NC(=O)[C@H]([C@@H](C)O)NC(=O)[C@H]([C@@H](C)O)NC(=O)[C@@H]2CCCN2C(=O)[C@H](CC(N)=O)NC(=O)[C@H](Cc2ccc(O)cc2)NC(=O)[C@H](CC(C)C)NC(=O)[C@@H](N)CSSC[C@@H](C(=O)O)NC1=O (HELM PEPTIDE1{C.L.Y.N.P.T.T.Y.Q.M.C}$PEPTIDE1,PEPTIDE1,1:R3-11:R3$$$V2.0)",80%
2,"CSCC[C@@H]1NC(=O)[C@H](CCC(N)=O)NC(=O)[C@H](Cc2ccc(O)cc2)NC(=O)[C@H]([C@@H](C)O)NC(=O)[C@H]([C@@H](C)O)NC(=O)[C@@H]2CCCN2C(=O)[C@H](CC(N)=O)NC(=O)[C@H](Cc2ccc(O)cc2)NC(=O)[C@H](CC(C)C)NC(=O)[C@@H](N)CSSC[C@@H](C(=O)O)NC(=O)[C@H](CC(=O)O)NC1=O (HELM PEPTIDE1{C.L.Y.N.P.T.T.Y.Q.M.D.C}$PEPTIDE1,PEPTIDE1,1:R3-12:R3$$$V2.0)",80%
3,"C[C@@H]1NC(=O)[C@H](CCC(N)=O)NC(=O)[C@H](Cc2ccc(O)cc2)NC(=O)[C@H]([C@@H](C)O)NC(=O)[C@H]([C@@H](C)O)NC(=O)[C@@H]2CCCN2C(=O)[C@H](CC(N)=O)NC(=O)[C@H](Cc2ccc(O)cc2)NC(=O)[C@@H](N)CSSC[C@@H](C(=O)O)NC1=O (HELM PEPTIDE1{C.Y.N.P.T.T.Y.Q.A.C}$PEPTIDE1,PEPTIDE1,1:R3-10:R3$$$V2.0)",73%
4,"CC(C)C[C@@H]1NC(=O)[C@H](CCC(N)=O)NC(=O)[C@H](Cc2ccc(O)cc2)NC(=O)[C@H]([C@@H](C)O)NC(=O)[C@H]([C@@H](C)O)NC(=O)[C@@H]2CCCN2C(=O)[C@H](CC(N)=O)NC(=O)[C@H](Cc2ccc(O)cc2)NC(=O)[C@@H](N)CSSC[C@@H](C(=O)O)NC1=O (HELM PEPTIDE1{C.Y.N.P.T.T.Y.Q.L.C}$PEPTIDE1,PEPTIDE1,1:R3-10:R3$$$V2.0)",73%
5,"CSCC[C@@H]1NC(=O)[C@H](CCC(N)=O)NC(=O)[C@H](Cc2ccc(O)cc2)NC(=O)[C@H]([C@@H](C)O)NC(=O)[C@H]([C@@H](C)O)NC(=O)[C@@H]2CCCN2C(=O)[C@H](CC(N)=O)NC(=O)[C@H](Cc2ccc(O)cc2)NC(=O)[C@@H](N)CSSC[C@@H](C(=O)O)NC(=O)[C@H](CC(=O)O)NC1=O (HELM PEPTIDE1{C.Y.N.P.T.T.Y.Q.M.D.C}$PEPTIDE1,PEPTIDE1,1:R3-11:R3$$$V2.0)",80%
6,"C[C@@H](O)[C@@H]1NC(=O)[C@H]([C@@H](C)O)NC(=O)[C@@H]2CCCN2C(=O)[C@H](CC(N)=O)NC(=O)[C@H](Cc2ccc(O)cc2)NC(=O)[C@@H](N)CSSC[C@@H](C(=O)O)NC(=O)[C@H](CCC(N)=O)NC(=O)[C@H](CCC(N)=O)NC(=O)[C@H](Cc2ccc(O)cc2)NC1=O (HELM PEPTIDE1{C.Y.N.P.T.T.Y.Q.Q.C}$PEPTIDE1,PEPTIDE1,1:R3-10:R3$$$V2.0)",73%
7,"C[C@@H](O)[C@@H]1NC(=O)[C@H]([C@@H](C)O)NC(=O)[C@@H]2CCCN2C(=O)[C@H](CC(N)=O)NC(=O)[C@H](Cc2ccc(O)cc2)NC(=O)[C@@H](N)CSSC[C@@H](C(=O)O)NC(=O)[C@H](CC[S+](C)[O-])NC(=O)[C@H](CCC(N)=O)NC(=O)[C@H](Cc2ccc(O)cc2)NC1=O (stereo partly drawn) (HELM PEPTIDE1{C.Y.N.P.T.T.Y.Q.[CS(=O)CC[C@H](N[*:1])C(=O)[*:2]].C}$PEPTIDE1,PEPTIDE1,1:R3-10:R3$$$V2.0)",73%
8,"CCCC[C@@H]1NC(=O)[C@H](CCC(N)=O)NC(=O)[C@H](Cc2ccc(O)cc2)NC(=O)[C@H]([C@@H](C)O)NC(=O)[C@H]([C@@H](C)O)NC(=O)[C@@H]2CCCN2C(=O)[C@H](CC(N)=O)NC(=O)[C@H](Cc2ccc(O)cc2)NC(=O)[C@@H](N)CSSC[C@@H](C(=O)O)NC1=O (HELM PEPTIDE1{C.Y.N.P.T.T.Y.Q.[Nle].C}$PEPTIDE1,PEPTIDE1,1:R3-10:R3$$$V2.0)",73%
